In patent EP4446411A1, “VARIANT SUBTILISIN PROTEASES” (PEACCEL, priority 2023, dated 2024):
Numbering of substitutions follows the chain as printed. In names and notes the source's numbering stands. *1 amine or outer side, *2 acyl side, *3 side chain or, on linkers, in order; H or OH if unused. Where a SMILES comes first, the peptide text is derived from it. The star is where a group is joined. pNA = O=[N+]([O-])c1ccc(N*)cc1; Suc = O=C(CCC(=O)[*:2])[*:1]

Legend:
Test in all cases: Kinetic parameters by release of p-nitroaniline from suc-AAPFpNA (absorbance at 410 nm, Michaelis-Menten fit)
[1] = molecular target: T1, Bacillus lentus subtilisin variant N74D/S97D/S126G/P204I/T254P/S259N, SEQ ID NO: 6 (Lederbergia lenta, UniProt P29600, N74D/P204I/S126G/S259N/S97D/T254P); assay type: biochemical
T1 construct: made in house; host or cells: protease deficient Bacillus subtilis 168
T1 sequence (P29600 1-269 N74D/S97D/S126G/P204I/T254P/S259N): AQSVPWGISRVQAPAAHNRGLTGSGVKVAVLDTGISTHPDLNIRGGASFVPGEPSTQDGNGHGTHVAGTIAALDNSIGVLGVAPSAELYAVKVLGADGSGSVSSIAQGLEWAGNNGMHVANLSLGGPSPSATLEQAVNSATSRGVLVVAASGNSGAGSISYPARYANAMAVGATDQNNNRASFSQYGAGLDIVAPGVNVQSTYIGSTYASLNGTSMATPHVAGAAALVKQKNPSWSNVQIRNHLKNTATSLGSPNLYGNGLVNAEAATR
Protocol: (§1) Three selected mutants as well as the wild-type and one mutant of the patent application WO1995010591 A1 data set were cloned in a Bacillus vector behind a constitutive APRE promotor and expressed in a protease deficient Bacillus subtilis 168 strain. The transformed strains were grown for 24 hours at 37°C in shake flasks. The subtilisin variants were purified by Ion exchange chromatography followed by […] with a 0-200 mM salt gradient. The activity of the protease variants was determined by the release of the chromophore para-nitroanilide from succinyl-alanine-alanine-proline-phenylalanine-para-nitroanilide (suc-AAPFpNA). The release of the pNA causes an increase in the absorbance at 410 nm, the temporal progression of which is used as a measure of the activity of the enzymes.
(§2) The kinetic parameters kcat and Km of the variants were measured using basically the method described in Bonneau, P. R., Graycar, T. P., Estell, D. A., & Jones, J. B. (1991). Alteration of the specificity of subtilisin BPN'by site-directed mutagenesis in its S1 and S1'binding sites. Journal of the American Chemical Society, 113(3), 1026-1030. A small aliquot of purified subtilisin variant was added to a 96 microtiterplate well containing succinyl-L-Ala-L-Ala-L-Pro-L-Phe-p-nitroanilide (SEQ ID NO: 1) dissolved in 0.1M Tris-HCL, pH 8.6. The reaction progress was measured spectrophotometrically at 25°C by monitoring the absorbance of p-nitroaniline at 410nm. The corresponding experimental values were fit to the Michaelis-Menten equation by a regression algorithm. The kcat/KM ratio was obtained by dividing the resulting values. […] Table 2: kinetic parameters kcat and Km of the variants at pH 8.6
(§3) The kinetic parameters kcat and Km of the variants were also measured using basically the method described in Bonneau, P. R., Graycar, T. P., Estell, D. A., & Jones, J. B. (1991). Alteration of the specificity of subtilisin BPN'by site-directed mutagenesis in its S1 and S1'binding sites. Journal of the American Chemical Society, 113(3), 1026-1030. A small aliquot of purified subtilisin variant was added to a microtiterplate containing suc-AAPFpNA (SEQ ID NO:1) dissolved in 0.1M glycine pH10. The reaction progress was measured spectrophotometrically by monitoring the absorbance of p-nitroaniline at 410nm. The corresponding experimental values were fit to the Michaelis-Menten equation by a regression algorithm. The kcat/Km ratio was obtained by dividing the resulting values. […] Kcat kcat/km are indicated as % compared to the wild-type (100%). Table 3: kinetic parameters kcat and Km of the variants at pH 10

[2] = molecular target: T2, wild-type subtilisin of Bacillus lentus (GG36), WT, SEQ ID NO: 2 (Lederbergia lenta, UniProt P29600); assay type: biochemical
T2 construct: made in house; host or cells: protease deficient Bacillus subtilis 168
T2 sequence (P29600 1-269): T1 sequence (P29600 1-269 N74D/S97D/S126G/P204I/T254P/S259N) with D74N, D97S, G126S, I204P, P254T, N259S
Protocol: as §1, §2, §3

[3] = molecular target: T3, Bacillus lentus subtilisin variant N74D/S99G/V102W/S126G/N198A/N212S/T254P, SEQ ID NO: 5 (Lederbergia lenta, UniProt P29600, N198A/N212S/N74D/S126G/S99G/T254P/V102W); assay type: biochemical
T3 construct: made in house; host or cells: protease deficient Bacillus subtilis 168
T3 sequence (P29600 1-269 N74D/S99G/V102W/S126G/N198A/N212S/T254P): T1 sequence (P29600 1-269 N74D/S97D/S126G/P204I/T254P/S259N) with D97S, S99G, V102W, N198A, I204P, N212S, N259S
Protocol: as §1, §2, §3

[4] = molecular target: T4, Bacillus lentus subtilisin variant N74D/S99G/V102W/S126G/D191E/N198G/N212S/T254P, SEQ ID NO: 4 (Lederbergia lenta, UniProt P29600, D191E/N198G/N212S/N74D/S126G/S99G/T254P/V102W); assay type: biochemical
T4 construct: made in house; host or cells: protease deficient Bacillus subtilis 168
T4 sequence (P29600 1-269 N74D/S99G/V102W/S126G/D191E/N198G/N212S/T254P): T1 sequence (P29600 1-269 N74D/S97D/S126G/P204I/T254P/S259N) with D97S, S99G, V102W, D191E, N198G, I204P, N212S, N259S
Protocol: as §1, §2, §3

[5] = molecular target: T5, Bacillus lentus subtilisin variant N74D/S101A/V102W (control variant of WO1995010591), SEQ ID NO: 3 (Lederbergia lenta, UniProt P29600, N74D/S101A/V102W); assay type: biochemical
T5 construct: made in house; host or cells: protease deficient Bacillus subtilis 168
T5 sequence (P29600 1-269 N74D/S101A/V102W): T1 sequence (P29600 1-269 N74D/S97D/S126G/P204I/T254P/S259N) with D97S, S101A, V102W, G126S, I204P, P254T, N259S
Protocol: as §1, §2, §3

[6] = substrate: C[C@H](NC(=O)CCC(=O)O)C(=O)N[C@@H](C)C(=O)N1CCC[C@H]1C(=O)N[C@@H](Cc1ccccc1)C(=O)Nc1ccc([N+](=O)[O-])cc1; assay type: biochemical, Bacillus lentus
Protocol: as §1, §2, §3

[7] = other: 0.1M Tris-HCL, pH 8.6, 25°C, pH 8.6, 25.0 °C
[8] = other: 0.1M glycine pH10, pH 10.0

C[C@H](NC(=O)CCC(=O)O)C(=O)N[C@@H](C)C(=O)N1CCC[C@H]1C(=O)N[C@@H](Cc1ccccc1)C(=O)Nc1ccc([N+](=O)[O-])cc1 [succinyl-L-Ala-L-Ala-L-Pro-L-Phe-p-nitroanilide] (Suc-AAPF-pNA)
kcat pH 8.6 ([1]; 0.1M Tris-HCL, pH 8.6, 25°C): 55 % of wild-type
kcat/Km pH 8.6 ([1]; 0.1M Tris-HCL, pH 8.6, 25°C): 51 % of wild-type
kcat pH 10 ([1]; 0.1M glycine pH10): 37 %half-life of wild-type
kcat/Km pH10 ([1]; 0.1M glycine pH10): 97 % wild-type
kcat pH 8.6 ([2]; 0.1M Tris-HCL, pH 8.6, 25°C): 100 % of wild-type
kcat/Km pH 8.6 ([2]; 0.1M Tris-HCL, pH 8.6, 25°C): 100 % of wild-type
kcat pH 10 ([2]; 0.1M glycine pH10): 100 %half-life of wild-type
kcat/Km pH10 ([2]; 0.1M glycine pH10): 100 % wild-type
kcat pH 8.6 ([3]; 0.1M Tris-HCL, pH 8.6, 25°C): 503 % of wild-type
kcat/Km pH 8.6 ([3]; 0.1M Tris-HCL, pH 8.6, 25°C): 6362 % of wild-type
kcat pH 10 ([3]; 0.1M glycine pH10): 723 %half-life of wild-type
kcat/Km pH10 ([3]; 0.1M glycine pH10): 10827 % wild-type
kcat pH 8.6 ([4]; 0.1M Tris-HCL, pH 8.6, 25°C): 579 % of wild-type
kcat/Km pH 8.6 ([4]; 0.1M Tris-HCL, pH 8.6, 25°C): 3326 % of wild-type
kcat pH 10 ([4]; 0.1M glycine pH10): 719 %half-life of wild-type
kcat/Km pH10 ([4]; 0.1M glycine pH10): 5100 % wild-type
kcat pH 8.6 ([5]; 0.1M Tris-HCL, pH 8.6, 25°C): 638 % of wild-type
kcat/Km pH 8.6 ([5]; 0.1M Tris-HCL, pH 8.6, 25°C): 1392 % of wild-type
kcat pH 10 ([5]; 0.1M glycine pH10): 554 %half-life of wild-type
kcat/Km pH10 ([5]; 0.1M glycine pH10): 2263 % wild-type

B1: wild-type subtilisin of Bacillus lentus (GG36), WT, SEQ ID NO: 2 (Lederbergia lenta) (protein)
chain: T1 sequence (P29600 1-269 N74D/S97D/S126G/P204I/T254P/S259N) with D74N, D97S, G126S, I204P, P254T, N259S
notes: made in house; host or cells: protease deficient Bacillus subtilis 168
Km [6, 7]: 630 µM
Km [6, 8]: 1340 µM

B2: Bacillus lentus subtilisin variant N74D/S101A/V102W (control variant of WO1995010591), SEQ ID NO: 3 (Lederbergia lenta; N74D/S101A/V102W) (protein)
chain: T1 sequence (P29600 1-269 N74D/S97D/S126G/P204I/T254P/S259N) with D97S, S101A, V102W, G126S, I204P, P254T, N259S
notes: as for B1
Km [6, 7]: 290 µM
Km [6, 8]: 330 µM

B3: Bacillus lentus subtilisin variant N74D/S99G/V102W/S126G/D191E/N198G/N212S/T254P, SEQ ID NO: 4 (Lederbergia lenta; … (protein)
chain: T1 sequence (P29600 1-269 N74D/S97D/S126G/P204I/T254P/S259N) with D97S, S99G, V102W, D191E, N198G, I204P, N212S, N259S
notes: as for B1
Km [6, 7]: 110 µM
Km [6, 8]: 190 µM

B4: Bacillus lentus subtilisin variant N74D/S99G/V102W/S126G/N198A/N212S/T254P, SEQ ID NO: 5 (Lederbergia lenta; N198A/N212S/N74D/S126G/S99G/T254P/V102W) (protein)
chain: T1 sequence (P29600 1-269 N74D/S97D/S126G/P204I/T254P/S259N) with D97S, S99G, V102W, N198A, I204P, N212S, N259S
notes: as for B1
Km [6, 7]: 50 µM
Km [6, 8]: 90 µM

B5: Bacillus lentus subtilisin variant N74D/S97D/S126G/P204I/T254P/S259N, SEQ ID NO: 6 (Lederbergia lenta; N74D/P204I/S126G/S259N/S97D/T254P) (protein)
chain: T1 sequence (P29600 1-269 N74D/S97D/S126G/P204I/T254P/S259N)
notes: as for B1
Km [6, 7]: 660 µM
Km [6, 8]: 520 µM
